For data set [1] the following is noted: Liquid; for mass density: 298.15 K, 101.33 kPa.
Data set [2] can be described thus: refractive index (Na D-line) (dimensionless). The settings on record: 298.15 K; 101.33 kPa; Liquid; Standard Abbe refractometry.

One may read the mass density as mass per unit of volume. The vapor or sublimation pressure is the pressure of vapour in equilibrium with the condensed phase. Broadly, the refractive index is the speed of light in vacuum divided by its phase velocity in the sample.

SMILES strings stand for the structures. ± gives the expanded uncertainty stated by the source.

As to `CCCOCCC` [dipropyl ether], in data set [1], the mass density is given as 741.81 ± 0.91 kg/m3. Besides, the “vapor or sublimation pressure” value in data set [1] (363.16 K) came to 101.3 ± 1.8 kPa. For the same molecule, the refractive index in data set [2] is given as 1.3784 ± 0.0008.

As for `CCCCCO` [pentan-1-ol], the mass density in data set [1] is recorded as 810.89 ± 0.77 kg/m3. In data set [1] (410.62 K), the “vapor or sublimation pressure” value was 101.3 ± 1.8 kPa. The refractive index in data set [2] is 1.408 ± 0.0008.

For the molecule `CCCO` [propan-1-ol], the mass density in data set [1] was found to be 799.62 ± 0.48 kg/m3. Moreover, in data set [1] (369.75 K), the “vapor or sublimation pressure” value was determined as 101.3 ± 1.8 kPa. For the same molecule, the refractive index in data set [2] was determined as 1.3836 ± 0.0007.

The record behind these values is the NIST ThermoML archive (doi:10.1016/j.fluid.2006.07.003).
